Results as given in patent publication US20050187264A1, “Phosphodiesterase iv inhibitor containing pyridylacrylamide derivative” (priority 2002, published 2005).

Experiments:
Phosphodiesterase IV = assay: Inhibitory action on phosphodiesterase IV ([3H]cAMP hydrolysis, liquid scintillation); format: biochemical; conditions: test substance 10 μM; enzyme isolated from U-937 cell; cAMP 1 μM substrate; 30 min at 30° C.; duplicate
Procedure: Phosphodiesterase IV was isolated using U-937 cell as origin (Torphy, T. J. et al., J. Pharmacol. Exp. Ther., 263, 1195-1205 (1992)). Using [^3 H]cAMP and cAMP (1 μM) as substrate/tracer, incubation was performed for 30 min at 30° C. [^3H]5′-AMP was measured by liquid scintillation. Inhibitory activity is represented by the rate of inhibition of a test substance with respect to a control group that is without the test substance, and is calculated by the following formula: Inhibitory activity (%)=100×(control group value−value of group with test substance addition/control group value.
All tests were implemented in duplicate.

Compound	melting point	Phosphodiesterase IV inhibitory activity (10 μM) (Phosphodiesterase IV)
COC(=O)CN(CCc1ccc(OC)c(OC)c1)C(=O)/C=C/c1cccnc1.Cl	168 to 170 °C	
COc1ccc(CCN(C)C(=O)/C(C#N)=C/c2cccnc2)cc1OC [Compound 2]	115 to 120 °C	72%
COCCOCOc1c(OC)cc(CCN(C)C(=O)/C=C/c2cccnc2)cc1OC [Compound 36]	152 to 155 °C	
COc1ccc(CCN(C)C(=O)/C=C/c2cccnc2)cc1OC [Compound 84, (E)-N-(3,4-dimethoxyphenethyl)-N-methyl-3-(3-pyridyl)-2-propenamide]		49%
CCOC(=O)COc1ccc(CNC(=O)/C=C/c2cccnc2)cc1OC [Compound 105]	105 to 107 °C	
COc1ccc(CCN(C)C(=S)/C=C/c2cccnc2)cc1OC.Cl [Compound 135, (E)-N-(3,4-dimethoxyphenethyl)-N-methyl-3-(3-pyridyl)-2-propenethioamide Hydrochloride]		53%
COc1ccc(CCNC(=S)/C=C/c2cccnc2)cc1OC.Cl [Compound 136]	182 to 187 °C	45%
COc1ccc(CCN(C)C(=O)/C=C/c2cccnc2)cc1OC.Cl [Compound 140]		54%
COc1ccc(CCN(C)C(=O)/C=C/c2cccnc2)cc1OC [Compound 143]		50%
COc1ccc(CCN(C)C(=O)/C=C/c2cccnc2)cc1OC [Compound 144]		47%
COc1ccc(CCN(C)C(=O)/C=C/c2cccnc2)cc1OC [Compound 146]		43%
COc1ccc(CCN(C)C(=O)/C=C/c2ccccn2)cc1OC.Cl [Compound 153]		59%
COc1ccc(C(=O)CN(C)C(=O)/C=C/c2cccnc2)cc1OC [Compound 155, (E)-N-[2-(3,4-dimethoxyphenyl)-2-oxoethyl]-N-methyl-3-(3-pyridyl)-2-propenamide]		69%
